For 26 molecules, IC50 results are on record in US11337970B2, “Inhibitors of indoleamine 2,3-dioxygenase and methods of their use” (BRISTOL-MYERS SQUIBB COMPANY, priority 2016, dated 2022).

T2 sequence (P14902 whole entry): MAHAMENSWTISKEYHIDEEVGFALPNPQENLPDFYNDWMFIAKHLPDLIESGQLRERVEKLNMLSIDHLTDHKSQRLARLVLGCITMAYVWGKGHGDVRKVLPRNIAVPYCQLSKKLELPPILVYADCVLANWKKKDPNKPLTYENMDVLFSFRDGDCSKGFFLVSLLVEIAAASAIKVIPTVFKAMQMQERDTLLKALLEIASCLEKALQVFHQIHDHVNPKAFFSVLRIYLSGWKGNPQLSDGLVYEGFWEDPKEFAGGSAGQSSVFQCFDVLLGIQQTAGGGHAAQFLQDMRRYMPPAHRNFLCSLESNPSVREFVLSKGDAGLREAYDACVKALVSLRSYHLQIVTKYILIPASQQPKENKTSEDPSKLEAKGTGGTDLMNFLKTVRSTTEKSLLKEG

The target of the first test is T1, indoleamine 2,3-dioxygenase (IDO) (Homo sapiens, UniProt P14902).
T1 construct: host or cells: HeLa cells stimulated with IFNγ (25 ng/mL)
T1 sequence (P14902 whole entry): as above
Put plainly: HeLa cell-based indoleamine 2,3-dioxygenase (IDO) assay (kynurenine production). Conditions: HeLa cells, IFNγ 25 ng/mL, 48 hour incubation, absorbance at 480 nm. How it is done: Assessment of inhibitor activity in HeLa cell-based indoleamine 2,3-dioxygenase (IDO) assay:
HeLa (ATCC® CCL-2) cells were obtained from the ATCC® and cultured in Dulbecco's Modified Eagle Medium supplemented with 4.5 g/L glucose, […] (#10-013-CV, Corning), 2 mM L-alanyl-L-glutamine dipeptide (#35050-061, Gibco), 100U/mL penicillin, 100 μg/mL streptomycin (#SV30010, HyClone) and 10% fetal bovine serum (#SH30071.03 HyClone). Cells were maintained in a humidified incubator at 37° C. in 5% CO2.
IDO activity was assessed as a function of kynurenine production as follows: HeLa cells were seeded in a 96-well culture plate at a density of 5,000 cells/well and allowed to equilibrate overnight. After 24 hours, the media was aspirated and replaced with media containing IFNγ (#285-IF/CF, R&D Systems) at a final concentration of 25 ng/mL. A serial dilution of each test compound was added to the cells in a total volume of 200 μL of culture medium. After a further 48 hour incubation, 170 μL of supernatant was transferred from each well to a fresh 96-well plate. 12.1 μL of 6.1N trichloroacetic acid (#T0699, Sigma-Aldrich) was added to each well and mixed, followed by incubation at 65° C. for 20 minutes to hydrolyze N-formylkynurenine, the product of indoleamine 2,3-dioxygenase, to kynurenine. The reaction mixture was then centrifuged for 10 mins at 500×g to sediment the precipitate. 100 μL of the supernatant was transferred from each well to afresh 96-well plate. 100 μl of 2% (w/v) p-dimethylaminobenzaldehyde (#15647-7, Sigma-Aldrich) in acetic acid (#A6283, Sigma-Aldrich) was added to each well mixed and incubated at room temperature for 20 mins. Kynurenine concentrations were determined by measuring absorbance at 480 nm and calibrating against an L-kynurenine (#K8625, Sigma-Aldrich) standard curve using a SPECTRAMAX® M2e microplate reader (Molecular Devices). The percentage activity at each inhibitor concentration was determined and IC50 values assessed using nonlinear regression.
For orientation: IC50 means the midpoint of a concentration-inhibition curve. In turn, `C[C@@H](c1ncc2ccccn12)[C@H]1CC[C@@H](c2ccnc3ccc(F)cc32)CC1` [Example 27, 6-fluoro-4-((cis)-4-((R)-1-(imidazo[1,5-a]pyridin-3-yl)ethyl)cyclohexyl)quinoline] showed an IC50 of 0.836 µM.
`C[C@H]([C@H]1CC[C@@H](c2ccnc3ccc(F)cc32)CC1)n1cnc2ccccc2c1=O` [Example 28, 3-((R)-1-((cis)-4-(6-fluoroquinolin-4-yl)cyclohexyl)ethyl)quinazolin-4(3H)-one] registered an IC50 of 0.834 µM.
Molecule `C[C@@H](c1nc2ccc(Cl)cc2c(=O)[nH]1)[C@H]1CC[C@@H](c2ccnc3ccc(F)cc32)CC1` [Example 29, 6-chloro-2-((R)-1-((cis)-4-(6-fluoroquinolin-4-yl)cyclohexyl)ethyl)quinazolin-4(3H)-one] gave an IC50 of 0.143 µM.
`Cc1ccc2nc([C@H](C)[C@H]3CC[C@@H](c4ccnc5ccc(F)cc54)CC3)cn2n1` [Example 30, 6-fluoro-4-((cis)-4-((R)-1-(6-methylimidazo[1,2-b]pyridazin-2-yl)ethyl)cyclohexyl)quinoline]: the IC50 was found to be 0.0966 µM.
Same read-out and setting: then `C[C@@H](c1cn2ncccc2n1)[C@H]1CC[C@@H](c2ccnc3ccc(F)cc32)CC1` [Example 31, 6-fluoro-4-((cis)-4-((R)-1-(imidazo[1,2-b]pyridazin-2-yl)ethyl)cyclohexyl)quinoline], with 0.607 µM.
The same measure, in the same setting: then `CC(c1nc2ccc(Cl)cc2[nH]1)C1CCC(c2ccnc3ncccc23)CC1` (centres unmarked) [Example 35-1], with 1 µM.
Still for that read-out and setting: then `C[C@@H](c1nc2cc(F)c(F)cc2[nH]1)[C@H]1CC[C@@H](c2ccnc3ccc(F)cc32)CC1` [Example 40], with 0.0027 µM.
`C[C@@H](c1nc2c(F)c(F)ccc2[nH]1)[C@H]1CC[C@@H](c2ccnc3ccc(F)cc32)CC1` [Example 41, 4-((1S,4s)-4-((R)-1-(4,5-difluoro-1H-benzo[d]imidazol-2-yl)ethyl)cyclohexyl)-6-fluoroquinoline]: it took 0.0034 µM to reach half-maximal inhibition (IC50).
The same measure, in the same setting: then `C[C@@H](c1nc2cc(Cl)c(F)cc2[nH]1)[C@H]1CC[C@@H](c2ccnc3ccc(F)cc32)CC1` [Example 42], with 0.0037 µM; and `C[C@@H](c1nc2c(F)c(F)c(F)c(F)c2[nH]1)[C@H]1CC[C@@H](c2ccnc3ccc(F)cc32)CC1` [Example 43, 6-fluoro-4-((1S,4s)-4-((R)-1-(4,5,6,7-tetrafluoro-1H-benzo[d]imidazol-2-yl)ethyl)cyclohexyl) quinoline], with 0.0035 µM.
Still for that read-out and setting: the result for `C[C@@H](c1nc2cc(Cl)c(Cl)cc2[nH]1)[C@H]1CC[C@@H](c2ccnc3ccc(F)cc32)CC1` [Example 44, 4-((1S,4s)-4-((R)-1-(5,6-dichloro-1H-benzo[d]imidazol-2-yl)ethyl)cyclohexyl)-6-fluoroquinoline] reads 0.0055 µM; that for `C[C@@H](c1nc2cc(C(F)(F)F)ccc2[nH]1)[C@H]1CC[C@@H](c2ccnc3ccc(F)cc32)CC1` [Example 45, 6-fluoro-4-((1S,4s)-4-((R)-1-(5-(trifluoromethyl)-1H-benzo[d]imidazol-2-yl)ethyl)cyclohexyl) quinoline], 0.0031 µM; that for `C[C@@H](c1nc2cc(C(F)(F)F)cc(Cl)c2[nH]1)[C@H]1CC[C@@H](c2ccnc3ccc(F)cc32)CC1` [Example 46, 4-((1S,4s)-4-((R)-1-(7-chloro-5-(trifluoromethyl)-1H-benzo[d]imidazol-2-yl)ethyl)cyclohexyl)-6-fluoroquinoline], 0.0122 µM.
Still for that read-out and setting: then `C[C@@H](c1nc2cc(C(F)(F)F)cc(C(F)(F)F)c2[nH]1)[C@H]1CC[C@@H](c2ccnc3ccc(F)cc32)CC1` [Example 47, 4-((1S,4s)-4-((R)-1-(5,7-bis(trifluoromethyl)-1H-benzo[d]imidazol-2-yl)ethyl)cyclohexyl)-6-fluoroquinolme], with 0.0456 µM; and `C[C@@H](c1nc2cc(OC(F)(F)F)ccc2[nH]1)[C@H]1CC[C@@H](c2ccnc3ccc(F)cc32)CC1` [Example 48, 6-fluoro-4-((1S,4s)-4-((R)-1-(5-(trifluoromethoxy)-1H-benzo[d]imidazol-2-yl)ethyl)cyclohexyl) quinoline], with 0.0107 µM; and `C[C@@H](c1nc2cc(C#N)ccc2[nH]1)[C@H]1CC[C@@H](c2ccnc3ccc(F)cc32)CC1` [Example 49, 2-((R)-1-((1s,4S)-4-(6-fluoroquinolin-4-yl)cyclohexyl)ethyl)-1H-benzo[d]imidazole-5-carbonitrile], with 0.0134 µM.
For the molecule `COC(=O)c1ccc2[nH]c([C@H](C)[C@H]3CC[C@@H](c4ccnc5ccc(F)cc54)CC3)nc2c1` [Example 50, methyl 2-((R)-1-((1s,4S)-4-(6-fluoroquinolin-4-yl)cyclohexyl)ethyl)-1H-benzo[d]imidazole-5-carboxylate], half-maximal inhibition (IC50) was put at 0.0021 µM.

Another test concerns the target T2, human IDO1 (Homo sapiens, UniProt P14902).
T2 construct: expressed in transfected cells
In words: IDO inhibition assay in HEK293 cells stably expressing human IDO1 (kynurenine, Ehrlich reagent). Format: cell-based. Conditions: 20 hours incubation, absorbance at 490 nm, read-out: IDO1 HEK Human IC50. How it is done: HEK293 cells were transfected with a pCDNA-based mammalian expression vector harboring human IDO1 cDNA (NM 002164.2) by electroporation. They were cultured in medium (DMEM with 10% FBS) containing 1 mg/ml G418 for two weeks. Clones of HEK293 cells that stably expressed human IDO1 protein were selected and expanded for IDO inhibition assay.
The human IDO1/HEK293 cells were seeded at 10,000 cells per 50 μL per well with RPMI/phenol red free media contains 10% FBS in a 384-well black wall clear bottom tissue culture plate (Matrix Technologies LLC) 100 nL of certain concentration of compound was then added to each well using ECHO liquid handling systems. The cells were incubated for 20 hours in 37° C. incubator with 5% CO2.
The compound treatments were stopped by adding trichloroacetic acid (Sigma-Aldrich) to a final concentration at 0.2%. The cell plate was further incubated at 50° C. for 30 minute. The equal volume supernatant (20 μL) and 0.2% (w/v) Ehrlich reagent (4-dimethylaminobenzaldehyde, Sigma-Aldrich) in glacial acetic acid were mixed in a new clear bottom 384-well plate. This plate was then incubated at room temperature for 30 minute. The absorbance at 490 nm was measured on Envision plate reader.
Compound IC50 values were calculated using the counts of 500 nM of a reference standard treatment as one hundred percent inhibition, and counts of no compound but DMSO treatment as zero percent inhibition.
`CCC(c1nc2ccc(Cl)cc2[nH]1)[C@H]1CC[C@H](Oc2ccnc3ccccc23)CC1` (mixture of isomers) [Example 13, 4-(((trans)-4-(1-(6-chloro-1H-benzo[d]imidazol-2-yl)propyl)cyclohexyl)oxy)quinoline]: the IC50 worked out at 0.0034 µM.
Still for that read-out and setting: the result for `CC[C@H](c1nc2ccc(Cl)cc2[nH]1)[C@H]1CC[C@@H](c2ccnc3ccc(F)cc32)CC1` (single isomer, unassigned) [Example 15-1, 4-(4-(1-(6-chloro-1H-benzo[d]imidazol-2-yl)propyl)cyclohexyl)-6-fluoroquinoline] reads 0.0406 µM; that for `CC[C@H](c1nc2ccc(Cl)cc2[nH]1)[C@H]1CC[C@@H](c2ccnc3ccc(F)cc32)CC1` (single isomer, unassigned) [Example 15-2, 4-(4-(1-(6-chloro-1H-benzo[d]imidazol-2-yl)propyl)cyclohexyl)-6-fluoroquinoline], 0.11 µM; that for `CC(c1nc2ccc(Cl)cc2[nH]1)C1CCC(c2ccnc3ccccc23)CC1` (single isomer, unassigned) [Example 16-1, (±)-4-(4-(1-(6-chloro-1H-benzo[d]imidazol-2-yl)ethyl)cyclohexyl)quinoline], 0.0541 µM.
The same measure, in the same setting: the result for `C[C@@H](c1nc2cc3c(cc2[nH]1)OCO3)[C@H]1CC[C@@H](c2ccnc3ccc(F)cc32)CC1` [Example 4, 6-((R)-1-((cis)-4-(6-fluoroquinolin-4-yl)cyclohexyl)ethyl)-5H-[1,3]dioxolo[4′,5′:4,5]benzo[1,2-d]imidazole] reads 0.0015 µM.
The same measure, in the same setting: the result for `C[C@@H](c1nc2cnccc2[nH]1)[C@H]1CC[C@@H](c2ccnc3ccc(F)cc32)CC1` [Example 5, 4-((cis)-4-((R)-1-(1H-imidazo[4,5-c]pyridin-2-yl)ethyl)cyclohexyl)-6-fluoroquinoline] reads 0.105 µM; that for `C[C@@H](Nc1nc2ccc(Cl)cc2s1)[C@H]1CC[C@@H](c2ccnc3ccc(F)cc32)CC1` [Example 8, 6-chloro-N—((R)-1-((cis)-4-(6-fluoroquinolin-4-yl)cyclohexyl)ethyl)benzo[d]thiazol-2-amine], 0.73 µM; that for `COc1ccc2nc(N[C@H](C)[C@H]3CC[C@@H](c4ccnc5ccc(F)cc54)CC3)[nH]c2c1` [Example 9, N-((R)-1-((cis)-4-(6-fluoroquinolin-4-yl)cyclohexyl)ethyl)-6-methoxy-1H-benzo[d]imidazol-2-amine], 0.263 µM.
For the molecule `C[C@@H](Nc1nc2ccccc2s1)[C@H]1CC[C@@H](c2ccnc3ccc(F)cc32)CC1` [Example 10], the IC50 stood at 0.194 µM.
